{"source": "ChEMBL document CHEMBL5303304", "about": "“EUbOPEN Chemogenomics Library - IncuCyte” (2023); note: unitless GR value; below 1 slowed growth and below 0 cell loss", "type_in_all_cases": "toxicity, cell-based", "key": {"U2OS": {"tested_on": "U2OS", "experiment": "Incucyte cell viability with U2OS", "details": "human, 10 µM, compound concentration 10 uM"}, "HEK-293T": {"tested_on": "HEK-293T", "experiment": "Incucyte cell viability with HEK293T", "details": "human, 10 µM, compound concentration 10 uM"}, "Fibroblast": {"tested_on": "Fibroblast", "experiment": "Incucyte cell viability with human fibroblast", "details": "10 µM, compound concentration 10 uM"}}}
{"smiles": "CC(C)C[C@H](NC(=O)[C@@H](O)[C@H](N)Cc1ccccc1)C(=O)O", "note": "[UBENIMEX]", "values": [{"measurement": "Growth Rate", "setting": "U2OS; 0 h, replicate number 1", "value": 0.42}, {"measurement": "Growth Rate", "setting": "U2OS; 6 h, replicate number 1", "value": 0.42}, {"measurement": "Growth Rate", "setting": "U2OS; 12 h, replicate number 1", "value": 0.82}, {"measurement": "Growth Rate", "setting": "U2OS; 18 h, replicate number 1", "value": 0.94}, {"measurement": "Growth Rate", "setting": "U2OS; 24 h, replicate number 1", "value": 0.89}, {"measurement": "Growth Rate", "setting": "HEK-293T; 0 h, replicate number 1", "value": 0.14}, {"measurement": "Growth Rate", "setting": "HEK-293T; 6 h, replicate number 1", "value": 0.49}, {"measurement": "Growth Rate", "setting": "HEK-293T; 12 h, replicate number 1", "value": 0.55}, {"measurement": "Growth Rate", "setting": "HEK-293T; 18 h, replicate number 1", "value": 0.49}, {"measurement": "Growth Rate", "setting": "HEK-293T; 18 h, replicate number 2", "value": 0.98}, {"measurement": "Growth Rate", "setting": "HEK-293T; 24 h, replicate number 1", "value": 0.59}, {"measurement": "Growth Rate", "setting": "HEK-293T; 24 h, replicate number 2", "value": 0.92}, {"measurement": "Growth Rate", "setting": "Fibroblast; 0 h, replicate number 2", "value": -0.85}, {"measurement": "Growth Rate", "setting": "Fibroblast; 12 h, replicate number 2", "value": 0.72}, {"measurement": "Growth Rate", "setting": "Fibroblast; 18 h, replicate number 2", "value": 0.83}, {"measurement": "Growth Rate", "setting": "Fibroblast; 24 h, replicate number 2", "value": 0.91}]}
{"smiles": "c1cnc2cc3c(cc2n1)[C@@H]1CNC[C@H]3C1", "note": "[VARENICLINE]", "values": [{"measurement": "Growth Rate", "setting": "U2OS; 0 h, replicate number 1", "value": 0.97}, {"measurement": "Growth Rate", "setting": "U2OS; 6 h, replicate number 2", "value": 0.65}, {"measurement": "Growth Rate", "setting": "U2OS; 12 h, replicate number 1", "value": 0.98}, {"measurement": "Growth Rate", "setting": "U2OS; 12 h, replicate number 2", "value": 0.82}, {"measurement": "Growth Rate", "setting": "U2OS; 18 h, replicate number 1", "value": 0.91}, {"measurement": "Growth Rate", "setting": "U2OS; 18 h, replicate number 2", "value": 1}, {"measurement": "Growth Rate", "setting": "U2OS; 24 h, replicate number 1", "value": 0.92}, {"measurement": "Growth Rate", "setting": "U2OS; 24 h, replicate number 2", "value": 0.9}, {"measurement": "Growth Rate", "setting": "HEK-293T; 0 h, replicate number 2", "value": 0.72}, {"measurement": "Growth Rate", "setting": "HEK-293T; 6 h, replicate number 1", "value": 0.65}, {"measurement": "Growth Rate", "setting": "HEK-293T; 6 h, replicate number 2", "value": 0.78}, {"measurement": "Growth Rate", "setting": "HEK-293T; 12 h, replicate number 2", "value": 0.87}, {"measurement": "Growth Rate", "setting": "HEK-293T; 18 h, replicate number 2", "value": 0.95}, {"measurement": "Growth Rate", "setting": "HEK-293T; 24 h, replicate number 1", "value": 0.99}, {"measurement": "Growth Rate", "setting": "Fibroblast; 0 h, replicate number 1", "value": 0.28}, {"measurement": "Growth Rate", "setting": "Fibroblast; 18 h, replicate number 1", "value": -0.31}]}
{"smiles": "CC1(C)CCC(CN2CCN(c3ccc(C(=O)NS(=O)(=O)c4ccc(NCC5CCOCC5)c([N+](=O)[O-])c4)c(Oc4cnc5[nH]ccc5c4)c3)CC2)=C(c2ccc(Cl)cc2)C1", "note": "[VENETOCLAX]", "values": [{"measurement": "Growth Rate", "setting": "U2OS; 0 h, replicate number 1", "value": 0.58}, {"measurement": "Growth Rate", "setting": "U2OS; 0 h, replicate number 2", "value": -0.65}, {"measurement": "Growth Rate", "setting": "U2OS; 6 h, replicate number 1", "value": 0.5}, {"measurement": "Growth Rate", "setting": "U2OS; 6 h, replicate number 2", "value": 0.98}, {"measurement": "Growth Rate", "setting": "U2OS; 12 h, replicate number 1", "value": 0.81}, {"measurement": "Growth Rate", "setting": "U2OS; 12 h, replicate number 2", "value": 0.51}, {"measurement": "Growth Rate", "setting": "U2OS; 18 h, replicate number 1", "value": 0.78}, {"measurement": "Growth Rate", "setting": "U2OS; 18 h, replicate number 2", "value": 0.89}, {"measurement": "Growth Rate", "setting": "U2OS; 24 h, replicate number 1", "value": 0.81}, {"measurement": "Growth Rate", "setting": "U2OS; 24 h, replicate number 2", "value": 0.93}, {"measurement": "Growth Rate", "setting": "HEK-293T; 0 h, replicate number 2", "value": 0.6}, {"measurement": "Growth Rate", "setting": "HEK-293T; 6 h, replicate number 1", "value": 0.01}, {"measurement": "Growth Rate", "setting": "HEK-293T; 12 h, replicate number 1", "value": 0.58}, {"measurement": "Growth Rate", "setting": "HEK-293T; 18 h, replicate number 1", "value": 0.66}, {"measurement": "Growth Rate", "setting": "HEK-293T; 24 h, replicate number 1", "value": 0.87}, {"measurement": "Growth Rate", "setting": "Fibroblast; 0 h, replicate number 2", "value": -0.85}, {"measurement": "Growth Rate", "setting": "Fibroblast; 6 h, replicate number 1", "value": 0.5}, {"measurement": "Growth Rate", "setting": "Fibroblast; 12 h, replicate number 1", "value": 0.87}]}
{"smiles": "CCOC(=O)C1=C[C@]2(CC)CCCN3CCc4c(n1c1ccccc41)[C@@H]32", "note": "[VINPOCETINE]", "values": [{"measurement": "Growth Rate", "setting": "U2OS; 0 h, replicate number 1", "value": -0.74}, {"measurement": "Growth Rate", "setting": "U2OS; 0 h, replicate number 2", "value": -0.97}, {"measurement": "Growth Rate", "setting": "U2OS; 6 h, replicate number 2", "value": 0.42}, {"measurement": "Growth Rate", "setting": "U2OS; 12 h, replicate number 2", "value": 0.83}, {"measurement": "Growth Rate", "setting": "U2OS; 18 h, replicate number 2", "value": 0.73}, {"measurement": "Growth Rate", "setting": "U2OS; 24 h, replicate number 2", "value": 0.79}, {"measurement": "Growth Rate", "setting": "HEK-293T; 0 h, replicate number 2", "value": 0.71}, {"measurement": "Growth Rate", "setting": "HEK-293T; 6 h, replicate number 1", "value": 0.46}, {"measurement": "Growth Rate", "setting": "HEK-293T; 12 h, replicate number 1", "value": 1}, {"measurement": "Growth Rate", "setting": "HEK-293T; 12 h, replicate number 2", "value": 0.83}, {"measurement": "Growth Rate", "setting": "HEK-293T; 18 h, replicate number 1", "value": 0.95}, {"measurement": "Growth Rate", "setting": "HEK-293T; 18 h, replicate number 2", "value": 0.89}, {"measurement": "Growth Rate", "setting": "HEK-293T; 24 h, replicate number 1", "value": 0.94}, {"measurement": "Growth Rate", "setting": "Fibroblast; 6 h, replicate number 1", "value": 0.56}, {"measurement": "Growth Rate", "setting": "Fibroblast; 6 h, replicate number 2", "value": -0.97}, {"measurement": "Growth Rate", "setting": "Fibroblast; 12 h, replicate number 1", "value": -1}, {"measurement": "Growth Rate", "setting": "Fibroblast; 12 h, replicate number 2", "value": 0.32}, {"measurement": "Growth Rate", "setting": "Fibroblast; 18 h, replicate number 2", "value": 0.85}]}
{"smiles": "CNC(=O)c1cccc(-c2ccc3c(N4CCOC[C@@H]4C)nc(N4CCOC[C@@H]4C)nc3n2)c1", "note": "[VISTUSERTIB]", "values": [{"measurement": "Growth Rate", "setting": "U2OS; 0 h, replicate number 1", "value": 0.02}, {"measurement": "Growth Rate", "setting": "U2OS; 6 h, replicate number 1", "value": 0.98}, {"measurement": "Growth Rate", "setting": "U2OS; 18 h, replicate number 1", "value": 0.93}, {"measurement": "Growth Rate", "setting": "U2OS; 24 h, replicate number 1", "value": 0.56}, {"measurement": "Growth Rate", "setting": "HEK-293T; 6 h, replicate number 1", "value": -0.56}, {"measurement": "Growth Rate", "setting": "HEK-293T; 6 h, replicate number 2", "value": -0.82}, {"measurement": "Growth Rate", "setting": "HEK-293T; 12 h, replicate number 1", "value": -0.41}, {"measurement": "Growth Rate", "setting": "HEK-293T; 12 h, replicate number 2", "value": -0.55}, {"measurement": "Growth Rate", "setting": "HEK-293T; 18 h, replicate number 1", "value": -0.28}, {"measurement": "Growth Rate", "setting": "HEK-293T; 18 h, replicate number 2", "value": -0.39}, {"measurement": "Growth Rate", "setting": "HEK-293T; 24 h, replicate number 1", "value": -0.18}, {"measurement": "Growth Rate", "setting": "HEK-293T; 24 h, replicate number 2", "value": -0.28}, {"measurement": "Growth Rate", "setting": "Fibroblast; 0 h, replicate number 2", "value": -0.6}, {"measurement": "Growth Rate", "setting": "Fibroblast; 12 h, replicate number 2", "value": 0.26}, {"measurement": "Growth Rate", "setting": "Fibroblast; 18 h, replicate number 1", "value": 0.78}, {"measurement": "Growth Rate", "setting": "Fibroblast; 18 h, replicate number 2", "value": 0.18}, {"measurement": "Growth Rate", "setting": "Fibroblast; 24 h, replicate number 1", "value": 0.66}, {"measurement": "Growth Rate", "setting": "Fibroblast; 24 h, replicate number 2", "value": 0.33}]}
{"smiles": "COc1cccc(CNc2ccc(S(=O)(=O)Nc3nc4ccccc4s3)cc2)c1O", "note": "[VLX-1005]", "values": [{"measurement": "Growth Rate", "setting": "U2OS; 6 h, replicate number 1", "value": 0.62}, {"measurement": "Growth Rate", "setting": "U2OS; 12 h, replicate number 1", "value": 0.89}, {"measurement": "Growth Rate", "setting": "U2OS; 24 h, replicate number 1", "value": 0.99}, {"measurement": "Growth Rate", "setting": "HEK-293T; 0 h, replicate number 1", "value": 0.18}, {"measurement": "Growth Rate", "setting": "HEK-293T; 18 h, replicate number 1", "value": 0.96}, {"measurement": "Growth Rate", "setting": "Fibroblast; 6 h, replicate number 2", "value": 0.25}, {"measurement": "Growth Rate", "setting": "Fibroblast; 12 h, replicate number 2", "value": 0.76}, {"measurement": "Growth Rate", "setting": "Fibroblast; 18 h, replicate number 2", "value": 0.84}, {"measurement": "Growth Rate", "setting": "Fibroblast; 24 h, replicate number 1", "value": 1}, {"measurement": "Growth Rate", "setting": "Fibroblast; 24 h, replicate number 2", "value": 0.84}]}
